Experiment: Stability (integrity) testing of amorphous and polymorphic form under storage conditions, RP-HPLC
Assay type: physicochemical
Set-up: Impurity RRT 1.104 / Impurity RRT 1.698: unit not given beside the values
Protocol: The integrity of the different forms of the (3R, 5R)-7-[2-(4-fluorophenyl)-5-isopropyl-3-phenyl-4-[(4-hydroxymethylphenylamino)carbonyl]-pyrrol-1-yl]-3,5-dihydroxy-heptanoic acid, hemi calcium salt, was tested under different atmospheric conditions to determine the stability of the amorphous and polymorphic form of the drug in various storage environments. Reversed Phase-HPLC (RP-HPLC) was used to separate (3R, 5R)-7-[2-(4-fluorophenyl)-5-isopropyl-3-phenyl-4-[(4-hydroxymethylphenylamino)carbonyl]-pyrrol-1-yl]-3,5-dihydroxy-heptanoic acid, hemi calcium salt, from smaller molecules representing breakdown products as well as oxidized drug. The relative amount of the drug was reported as a percent of total absorption by UV. The total peak area of all UV absorption impurities was used to define total impurity of the drug. Impurities are defined by their relative retention time (RRT) compared to native drug. Samples were injected onto a C18 column using standard temperature, gradient and run-time conditions.
The results of this integrity testing for the amorphous form of (3R, 5R)-7-[2-(4-fluorophenyl)-5-isopropyl-3-phenyl-4-[(4-hydroxymethylphenylamino)carbonyl]-pyrrol-1-yl]-3,5-dihydroxy-heptanoic acid, hemi calcium salt, is shown in Table 5.
Three separate batches of polymorphic Form I of (3R, 5R)-7-[2-(4-fluorophenyl)-5-isopropyl-3-phenyl-4-[(4-hydroxymethylphenylamino)carbonyl]-pyrrol-1-yl]-3,5-dihydroxy-heptanoic acid, hemi calcium salt, were prepared and tested under the same atmospheric conditions described for the amorphous form.

[1] = 25° C./60% RH 3M, hemi calcium salt
[2] = 25° C./60% RH 9M, hemi calcium salt

Description (5° C. 1M): White
Impurity RRT 1.096 (5° C. 1M): 0.248
Impurity RRT 1.183 (5° C. 1M): 0.051
Impurity RRT 1.439 (5° C. 1M): 0.17
Impurity RRT 1.596 (5° C. 1M): 0.086
Impurity RRT 1.698 (5° C. 1M): 0.068
Assay (5° C. 1M, hemi calcium salt): 98.36 % W/W
Highest Impurity (5° C. 1M, hemi calcium salt): 0.459
Impurity RRT 0.935 (5° C. 1M, hemi calcium salt): 0.412
Impurity RRT 1.045 (5° C. 1M, hemi calcium salt): 0.459
Impurity RRT 1.64 (5° C. 1M, hemi calcium salt): 0.063
Total Impurity (5° C. 1M, hemi calcium salt): 1.56
Water (5° C. 1M, hemi calcium salt): 4.45 % W/W
Description (5° C. 2M): White
Impurity RRT 1.096 (5° C. 2M): 0.233
Impurity RRT 1.183 (5° C. 2M): 0.06
Impurity RRT 1.439 (5° C. 2M): 0.163
Impurity RRT 1.596 (5° C. 2M): 0.079
Impurity RRT 1.698 (5° C. 2M): 0.07
Assay (5° C. 2M, hemi calcium salt): 98.24 % W/W
Highest Impurity (5° C. 2M, hemi calcium salt): 0.443
Impurity RRT 0.935 (5° C. 2M, hemi calcium salt): 0.413
Impurity RRT 1.045 (5° C. 2M, hemi calcium salt): 0.443
Impurity RRT 1.64 (5° C. 2M, hemi calcium salt): 0.06
Total Impurity (5° C. 2M, hemi calcium salt): 1.52
Water (5° C. 2M, hemi calcium salt): 4.31 % W/W
Description (5° C. 3M): White
Impurity RRT 1.096 (5° C. 3M): 0.216
Impurity RRT 1.439 (5° C. 3M): 0.150
Impurity RRT 1.596 (5° C. 3M): 0.068
Impurity RRT 1.698 (5° C. 3M): 0.068
Total Impurity (5° C. 3M): 1.35
Assay (5° C. 3M, hemi calcium salt): 98.19 % W/W
Highest Impurity (5° C. 3M, hemi calcium salt): 0.414
Impurity RRT 0.935 (5° C. 3M, hemi calcium salt): 0.376
Impurity RRT 1.045 (5° C. 3M, hemi calcium salt): 0.414
Impurity RRT 1.64 (5° C. 3M, hemi calcium salt): 0.055
Water (5° C. 3M, hemi calcium salt): 3.90 % W/W
Description (5° C. 4M): White
Impurity RRT 0.138 (5° C. 4M): 0.228
Impurity RRT 1.096 (5° C. 4M): 0.205
Impurity RRT 1.439 (5° C. 4M): 0.159
Impurity RRT 1.596 (5° C. 4M): 0.060
Impurity RRT 1.698 (5° C. 4M): 0.052
Assay (5° C. 4M, hemi calcium salt): 98.17 % W/W
Highest Impurity (5° C. 4M, hemi calcium salt): 0.427
Impurity RRT 0.935 (5° C. 4M, hemi calcium salt): 0.341
Impurity RRT 1.045 (5° C. 4M, hemi calcium salt): 0.427
Impurity RRT 1.640 (5° C. 4M, hemi calcium salt): 0.051
Total Impurity (5° C. 4M, hemi calcium salt): 1.523
Water (5° C. 4M, hemi calcium salt): 5.08 % W/W
Description (5° C. 5M): White
Impurity RRT 0.138 (5° C. 5M): 0.22
Impurity RRT 1.096 (5° C. 5M): 0.236
Impurity RRT 1.439 (5° C. 5M): 0.122
Impurity RRT 1.596 (5° C. 5M): 0.054
Impurity RRT 1.698 (5° C. 5M): 0.065
Assay (5° C. 5M, hemi calcium salt): 98.27 % W/W
Highest Impurity (5° C. 5M, hemi calcium salt): 0.401
Impurity RRT 0.935 (5° C. 5M, hemi calcium salt): 0.373
Impurity RRT 1.045 (5° C. 5M, hemi calcium salt): 0.401
Impurity RRT 1.640 (5° C. 5M, hemi calcium salt): 0.047
Total Impurity (5° C. 5M, hemi calcium salt): 1.527
Water (5° C. 5M, hemi calcium salt): 4.67 % W/W
Description (5° C. 6M): White
Impurity RRT 0.138 (5° C. 6M): 0.238
Impurity RRT 1.096 (5° C. 6M): 0.189
Impurity RRT 1.183 (5° C. 6M): 0.056
Impurity RRT 1.439 (5° C. 6M): 0.146
Impurity RRT 1.596 (5° C. 6M): 0.080
Impurity RRT 1.698 (5° C. 6M): 0.059
Water (5° C. 6M): 5.04 % W/W
Assay (5° C. 6M, hemi calcium salt): 98.61 % W/W
Highest Impurity (5° C. 6M, hemi calcium salt): 0.438
Impurity RRT 0.935 (5° C. 6M, hemi calcium salt): 0.373
Impurity RRT 1.045 (5° C. 6M, hemi calcium salt): 0.438
Impurity RRT 1.640 (5° C. 6M, hemi calcium salt): 0.048
Total Impurity (5° C. 6M, hemi calcium salt): 1.627
Description (5° C. 9M): White
Impurity RRT 0.138 (5° C. 9M): 0.228
Impurity RRT 1.096 (5° C. 9M): 0.205
Impurity RRT 1.439 (5° C. 9M): 0.188
Impurity RRT 1.596 (5° C. 9M): 0.061
Impurity RRT 1.698 (5° C. 9M): 0.082
Assay (5° C. 9M, hemi calcium salt): 97.96 % W/W
Highest Impurity (5° C. 9M, hemi calcium salt): 0.400
Impurity RRT 0.935 (5° C. 9M, hemi calcium salt): 0.366
Impurity RRT 1.045 (5° C. 9M, hemi calcium salt): 0.400
Impurity RRT 1.640 (5° C. 9M, hemi calcium salt): 0.056
Total Impurity (5° C. 9M, hemi calcium salt): 1.586
Water (5° C. 9M, hemi calcium salt): 4.64 % W/W
Description (5° C. 12M): White
Impurity RRT 0.138 (5° C. 12M): 0.259
Impurity RRT 1.096 (5° C. 12M): 0.208
Impurity RRT 1.183 (5° C. 12M): 0.033
Impurity RRT 1.439 (5° C. 12M): 0.141
Impurity RRT 1.596 (5° C. 12M): 0.053
Impurity RRT 1.698 (5° C. 12M): 0.045
Assay (5° C. 12M, hemi calcium salt): 98.27 % W/W
Highest Impurity (5° C. 12M, hemi calcium salt): 0.412
Impurity RRT 0.935 (5° C. 12M, hemi calcium salt): 0.392
Impurity RRT 1.045 (5° C. 12M, hemi calcium salt): 0.412
Impurity RRT 1.640 (5° C. 12M, hemi calcium salt): 0.050
Total Impurity (5° C. 12M, hemi calcium salt): 1.593
Water (5° C. 12M, hemi calcium salt): 5.03 % W/W
Description (25° C./60% RH 3M): White
Impurity RRT 1.096 (25° C./60% RH 3M): 0.214
Impurity RRT 1.439 (25° C./60% RH 3M): 0.158
Impurity RRT 1.596 (25° C./60% RH 3M): 0.067
Impurity RRT 1.698 (25° C./60% RH 3M): 0.065
Assay [1]: 98.15 % W/W
Highest Impurity [1]: 0.427
Impurity RRT 0.935 [1]: 0.383
Impurity RRT 1.045 [1]: 0.427
Impurity RRT 1.64 [1]: 0.051
Total Impurity [1]: 1.37
Water [1]: 4.74 % W/W
Assay (25° C./60% RH 6M): 98.15 % W/W
Description (25° C./60% RH 6M): White
Highest Impurity (25° C./60% RH 6M): 0.405
Impurity RRT 0.138 (25° C./60% RH 6M): 0.113
Impurity RRT 0.935 (25° C./60% RH 6M): 0.338
Impurity RRT 1.045 (25° C./60% RH 6M): 0.405
Impurity RRT 1.096 (25° C./60% RH 6M): 0.233
Impurity RRT 1.439 (25° C./60% RH 6M): 0.142
Impurity RRT 1.596 (25° C./60% RH 6M): 0.066
Impurity RRT 1.640 (25° C./60% RH 6M): 0.035
Impurity RRT 1.698 (25° C./60% RH 6M): 0.056
Total Impurity (25° C./60% RH 6M): 1.388
Water (25° C./60% RH 6M): 5.04 % W/W
Description (25° C./60% RH 9M): White
Impurity RRT 0.138 (25° C./60% RH 9M): 0.111
Impurity RRT 1.096 (25° C./60% RH 9M): 0.212
Impurity RRT 1.183 (25° C./60% RH 9M): 0.039
Impurity RRT 1.439 (25° C./60% RH 9M): 0.155
Impurity RRT 1.596 (25° C./60% RH 9M): 0.042
Impurity RRT 1.698 (25° C./60% RH 9M): 0.063
Assay [2]: 98.06 % W/W
Highest Impurity [2]: 0.389
Impurity RRT 0.935 [2]: 0.375
Impurity RRT 1.045 [2]: 0.389
Impurity RRT 1.640 [2]: 0.045
Total Impurity [2]: 1.431
Water [2]: 5.31 % W/W
Description (25° C./60% RH 12M): White
Impurity RRT 0.138 (25° C./60% RH 12M): 0.199
Impurity RRT 1.096 (25° C./60% RH 12M): 0.212
Impurity RRT 1.183 (25° C./60% RH 12M): 0.036
SMILES: CC(C)c1c(C(=O)Nc2ccc(CO)cc2)c(-c2ccccc2)c(-c2ccc(F)cc2)n1CC[C@@H](O)C[C@@H](O)CC(=O)[O-].CC(C)c1c(C(=O)Nc2ccc(CO)cc2)c(-c2ccccc2)c(-c2ccc(F)cc2)n1CC[C@@H](O)C[C@@H](O)CC(=O)[O-].[Ca+2] [PP00105, (3R, 5R)-7-[2-(4-fluorophenyl)-5-isopropyl-3-phenyl-4-[(4-hydroxymethylphenylamino)carbonyl]-pyrrol-1-yl]-3,5-dihydroxy-heptanoic acid, hemi calcium salt]
